Measured values reported in patent publication US20150266864A1, “HETEROAROMATIC COMPOUNDS, METHOD FOR PREPARING THE COMPOUNDS, PHARMACEUTICAL COMPOSITIONS, USES AND METHOD FOR TREATING ACUTE AND CHRONIC PAIN” (CRISTÁLIA PRODUTOS QUÍMICOS FARMACÊUTICOS LTDA, priority 2012, published 2015).

Columns and labels:
Swiss-type male mice = experiment: RotaRod performance test, motor coordination; conditions: for Mice residence time on the rotational cylinder: 9 rpm, cut off 180 s, mean ± SEM; for animal residence time on the rotational cylinder compared to controls: 15 minutes after administration
Method: The assessment of motor coordination in mice, by the rotarod performance test, was carried out to detect any possible sedative or muscle relaxant effect caused by the compounds of the present invention, previously tested in acute and neuropathic pain models. This test was carried out according to the method of described by Dunham & Miya and animal motor coordination was evaluated using RotaRod apparatus [Dunham M. S. & Miya. R. T. (1957). J. Amer. Pharmac. Assoc. Sci. Edit. 1957, 46, 208-209].
The RotaRod apparatus (Model 412 EFF, Insight Equipements, Brazil) is a device that measures motor coordination and thus evaluates balance alterations in mice. The apparatus consists of an acrylic box splited into four compartments with a rotational cylinder among them. The cylinder rotates at constant speed driven by a motor and regulated to the constant speed mode of 5-37 revolutions per minute (rpm). In this study the speed was set up to 9 rpm.
To remain on the rotational cylinder, the animal needs to move around, so that the motor coordination can be quantified. The four compartments have drop detection system, through the impact, a microprocessor circuit, for timing the permanence of the animal at the compartment, and for counting the number of falls.
The day before the test, Swiss-type male mice (19-25 g) were placed on the rotational cylinder, set up to the constant speed mode of 9 rpm for adaptation and learning. A group of 10 mice were used for each tested compound, and the total period spent on the rotational cylinder (in seconds) was recorded for a period of 180 seconds (cut off time) and it was accept a maximum of three falls for each animal. Motor coordination was assessed at times 0 (before treatment), 15, 30, 60 and 120 minutes after compounds administration at a dose of 32.25 μmol/kg.
All compounds were administered intraperitoneally (ip).
The Student's t-test was also used to compare means between two experimental groups. Differences were considered significant when p<0.05.

rats subjected to SNL [1] = experiment: Spinal nerve ligation (SNL) L5 model, mechanical allodynia (digital Von Frey); format: in vivo, rat; conditions: for reversal of allodynia signs associated with neuropathic pain: ip during 7 days, 32.25 μmol/kg; for paw withdrawal threshold, mechanical allodynia: after 3 days of treatment, 32.25 μmol/kg ip, p<0.05
Method: (§1) This experimental model was proposed by Kim and Chung [Kim, S. H.; Chung, J. M. Pain 1992, 50: 355-363] and consists of ligation of spinal nerves. Male Wistar rats, 180-220 g, were anesthetized with a mixture of ketamine and xylazine (60 mg/kg and 5 mg/kg, respectively) intraperitoneally. After the dorsal region asepsy, an incision was made between L5 and S1. The L6 transverse process was removed for locating the nerves L4 and L5, which were carefully isolated, and tight ligation of the L5 nerve with 6.0 silk thread was made, interrupting flow of the axon of the nerve. After this procedure, para-spinal muscles and skin were sutured, and then a topical antiseptic was applied. False operated animals (sham) were subjected to the same procedure, however the spinal nerve was not ligated.
To evaluate the development of mechanical allodynia, digital analgesimeter (Model EFF301; Insight Equipments), digitalized version coupled to a pointed filament (Von Frey model variant) was used. This test aims to assess changes in tactile sensitivity in response to a mechanical stimulus as a result of a neural damage. The device consisted of a hand-held force transducer fitted with a sensor tip, through which a pressure with increasing strength is applied against the footpad of the animals hindpaw to assess the threshold of paw withdrawal, that is, the digital analgesimeter records the maximal strength, in grams (g), in which the animal withstands until the paw withdrawal reflex.
Animals were placed in individual acrylic boxes and let to acclimate for 30 min before the beginning of the test. After this period, the thresholds of hindpaw withdrawal were determinded. For each hindpaw, five records of the withdrawal thresholds were made, and the average for each hindpaw was defined as the paw withdrawal threshold control.
(§2) The treatment started on the 7th day after surgery. Compounds were diluted in water or DMSO and administered through intraperitoneal route on daily basis, during 7 days, at a dose of […]. The effectiveness of tested compounds was assessed on days 1, 3, and 7 days after treatment, always before the next administration of the compound. Latencies were also assessed on days 1, 3, and 7 after treatment interruption.
(§3) Differences were considered significant when p<0.05.

Swiss mice = experiment: Hot plate model, assay for acute pain; format: in vivo; conditions: ip, 32.25 μmol/kg, plate 52° C., compared to morphine sulfate at the same dose
Excerpt: The antinociceptive activity (AA) of the present invention selected compounds (C3, C9, C11, C12, C13, C15 and C17) was investigated in hot plate model [Hot Plate Model LE7406, Scientific Inc.] described by Kuraishi et al. [Kuraishi, Y., Harada, Y., Aratani, S., Satoh, M., Takagi, H. Brain Research 1983.273, 245-2523]. This method is valid to evaluate the analgesic activity of substances acting on the central nervous system. Swiss mice weighing 20-25 g were placed on a metal plate heated up to 52° C. The animals were withdrawn from the hot plate at the time they lead their forepaws toward the mouth to lick, being this an indicative of pain second Le Bars et al. [Le Bars, D., Gozariu, M., Cadden, S. W. Animal models of nociception. Pharmacol. Rev. 2001, 53 (4), 597-652]. In this way, it was analyzed how long the animal, treated or not (control) with the analgesic substance, remained on the plate at 52° C.; the longest residence time of an animal on the plate was 35 seconds. This time limit (or cut off) (35 s) was determined by the average of three measurements of latency control values, obtained for each animal multiplied by three, to prevent any kind of tissue injury on the footpad of animals's paw due to long permanence on the heated surface. The protocol consisted in the intraperitoneal (ip) injection of the selected compounds of the present invention at a dose of 32.25 μmol/kg. The antinociceptive activity was evaluated at intervals of 10 minutes until effect completely disappear and, compared to morphine sulfate ([…]) at the same dose of 32.25 μmoles/kg (12.2 mg/kg). The investigated parameter is the latency of reflex to paw withdrawal in response to thermal stimulus. The results were expressed as percentage of AA, which was calculated according to Equation 1 for each experiment.

rats subjected to SNL [2] = experiment: Spinal nerve ligation (SNL) L5 model, thermal hyperalgesia; format: in vivo, rat; conditions: for paw withdrawal latency, thermal hyperalgesia: after 7 days of treatment; for reversal of hyperalgesia signs associated with neuropathic pain: ip during 7 days, 32.25 μmol/kg; for effect on thermal hyperalgesia after treatment interruption: after 7 days of 32.25 μmol/kg ip
Method: as §1
This method aims to evaluate the animal behavior in response to hyperalgesic phenomenon resulting from the injury induced by the ligament of spinal nerve (L5). In this regard, paw withdrawal in response to thermal stimulus was used, and the thermal stimulus was induced by the radiant heat of an incandescent lamp bulb. The paw withdrawal test was performed as described for the assessment of thermal hyperalgesia in the sciatic nerve chronic constrictive injury model.
as §3, §2

[3] = T 15 min after ip administration, 32.25 μmol/kg
[4] = T 30 min after ip administration, 32.25 μmol/kg (diazepam 2 mg/kg)
[5] = T 60 min after ip administration, 32.25 μmol/kg (diazepam 2 mg/kg)
[6] = T 120 min after ip administration, 32.25 μmol/kg (diazepam 2 mg/kg)

SMILES: CCOC(=O)C1(c2ccccc2)CCN(CCc2conc2-c2ccc(F)cc2)CC1.Cl [C17, Ethyl 1-{2-[3-(4-fluorophenyl)-1,2-oxazol-4-yl]ethyl}-4-phenylpiperidine-4-carboxylate hydrochloride]
- Mice residence time on the rotational cylinder (Swiss-type male mice; [3]): 127.4 s
- Mice residence time on the rotational cylinder (Swiss-type male mice; [4]): 153.3 s
- Mice residence time on the rotational cylinder (Swiss-type male mice; [5]): 163.2 s
- Mice residence time on the rotational cylinder (Swiss-type male mice; [6]): 175.6 s
- reversal of allodynia signs associated with neuropathic pain (rats subjected to SNL [1]): effective in reverse the hyperalgesia and allodynia signs
- antinociceptive activity (AA), hot plate (Swiss mice): exhibit antinociceptive activity of intensity and kinetics similar to morphine sulfate
- paw withdrawal latency, thermal hyperalgesia (rats subjected to SNL [2]; 32.25 μmol/kg ip): statistically significant antinociceptive effect
- reversal of hyperalgesia signs associated with neuropathic pain (rats subjected to SNL [2]): effective in reverse the hyperalgesia and allodynia signs

SMILES: Cl.OC1(c2ccc(Cl)cc2)CCN(CCc2conc2-c2ccc(F)cc2)CC1 [C15, 4-(4-chlorophenyl)-1-{2-[3-(4-fluorophenyl)-1,2-oxazol-4-yl]ethyl}piperidin-4-ol hydrochloride]
- animal residence time on the rotational cylinder compared to controls (Swiss-type male mice; 32.25 μmol/kg): equal to the time observed for the negative control, and significantly higher than the time observed for the control amitriptyline hydrochloride
- Mice residence time on the rotational cylinder (Swiss-type male mice; [3]): 180.0 s
- Mice residence time on the rotational cylinder (Swiss-type male mice; [4]): 179.0 s
- Mice residence time on the rotational cylinder (Swiss-type male mice; [5]): 179.2 s
- Mice residence time on the rotational cylinder (Swiss-type male mice; [6]): 180.0 s
- reversal of allodynia signs associated with neuropathic pain (rats subjected to SNL [1]): effective in reverse the hyperalgesia and allodynia signs
- antinociceptive activity (AA), hot plate (Swiss mice): exhibit antinociceptive activity of intensity and kinetics similar to morphine sulfate
- effect on thermal hyperalgesia after treatment interruption (rats subjected to SNL [2]): maintained for 1 day after treatment interruption
- paw withdrawal latency, thermal hyperalgesia (rats subjected to SNL [2]; 32.25 μmol/kg ip): statistically significant antinociceptive effect
- reversal of hyperalgesia signs associated with neuropathic pain (rats subjected to SNL [2]): effective in reverse the hyperalgesia and allodynia signs

SMILES: Cl.Cl.Fc1ccc(-c2n[nH]cc2CCN2CCCCC2)cc1.O [C3, 1-{2-[3-(4-fluorophenyl)-1H-pyrazol-4-yl]ethyl}piperidine dihydrochloride monohydrate]
- animal residence time on the rotational cylinder compared to controls (Swiss-type male mice; 32.25 μmol/kg): equal to the time observed for the negative control, and significantly higher than the time observed for the control amitriptyline hydrochloride
- Mice residence time on the rotational cylinder (Swiss-type male mice; [3]): 180.0 s
- Mice residence time on the rotational cylinder (Swiss-type male mice; [4]): 178.2 s
- Mice residence time on the rotational cylinder (Swiss-type male mice; [5]): 178.7 s
- Mice residence time on the rotational cylinder (Swiss-type male mice; [6]): 180.0 s
- paw withdrawal threshold, mechanical allodynia (rats subjected to SNL [1]): significant (p<0.05) paw withdrawal threshold
- analgesic effect on mechanical allodynia after treatment interruption (rats subjected to SNL [1]; after 7 days of 32.25 μmol/kg ip): analgesic effect is maintained until the first day after treatment interruption
- antinociceptive activity (AA), hot plate (Swiss mice): exhibit antinociceptive activity of intensity and kinetics similar to morphine sulfate
- effect on thermal hyperalgesia after treatment interruption (rats subjected to SNL [2]): still observed up to 1 day after treatment interruption
- increase in paw withdrawal latency (rats subjected to SNL [2]; since the first day of treatment, 32.25 μmol/kg ip): statistically significant increase in paw withdrawal latency

SMILES: CN1CCN(CCc2c[nH]nc2-c2ccc(F)cc2)CC1.Cl.Cl.Cl.O.O [C11, 1-{2-[3-(4-fluorophenyl)-1H-pyrazol-4-yl]ethyl}-4-methylpiperazine trihydrochloride dihydrate]
- animal residence time on the rotational cylinder compared to controls (Swiss-type male mice; 32.25 μmol/kg): equal to the time observed for the negative control, and significantly higher than the time observed for the control amitriptyline hydrochloride
- Mice residence time on the rotational cylinder (Swiss-type male mice; [3]): 180.0 s
- Mice residence time on the rotational cylinder (Swiss-type male mice; [4]): 177.0 s
- Mice residence time on the rotational cylinder (Swiss-type male mice; [5]): 178.5 s
- Mice residence time on the rotational cylinder (Swiss-type male mice; [6]): 176.7 s
- paw withdrawal threshold, mechanical allodynia (rats subjected to SNL [1]): significant (p<0.05) paw withdrawal threshold
- reversal of allodynia signs associated with neuropathic pain (rats subjected to SNL [1]): effective in reverse the hyperalgesia and allodynia signs
- antinociceptive activity (AA), hot plate (Swiss mice): exhibit antinociceptive activity of intensity and kinetics similar to morphine sulfate
- paw withdrawal latency, thermal hyperalgesia (rats subjected to SNL [2]; 32.25 μmol/kg ip): statistically significant antinociceptive effect
- reversal of hyperalgesia signs associated with neuropathic pain (rats subjected to SNL [2]): effective in reverse the hyperalgesia and allodynia signs

SMILES: Cl.Cl.Fc1ccc(-c2n[nH]cc2CCN2CCOCC2)cc1.O [C9, 4-{2-[3-(4-fluorophenyl)-1H-pyrazol-4-yl]ethyl}morpholine dihydrochloride monohydrate]
- animal residence time on the rotational cylinder compared to controls (Swiss-type male mice; 32.25 μmol/kg): equal to the time observed for the negative control, and significantly higher than the time observed for the control amitriptyline hydrochloride
- Mice residence time on the rotational cylinder (Swiss-type male mice; [3]): 180.0 s
- Mice residence time on the rotational cylinder (Swiss-type male mice; [4]): 180.0 s
- Mice residence time on the rotational cylinder (Swiss-type male mice; [5]): 180.0 s
- Mice residence time on the rotational cylinder (Swiss-type male mice; [6]): 175.3 s
- reversal of allodynia signs associated with neuropathic pain (rats subjected to SNL [1]): effective in reverse the hyperalgesia and allodynia signs
- antinociceptive activity (AA), hot plate (Swiss mice): exhibit antinociceptive activity of intensity and kinetics similar to morphine sulfate
- paw withdrawal latency, thermal hyperalgesia (rats subjected to SNL [2]; 32.25 μmol/kg ip): statistically significant antinociceptive effect
- reversal of hyperalgesia signs associated with neuropathic pain (rats subjected to SNL [2]): effective in reverse the hyperalgesia and allodynia signs
